The source of these data is patent US20060165683A1, “Methods and compositions for control of bone formation via modulation of sympathetic tone” (priority 2001, published 2006).

Assay [1] has as its system osteoblasts in calvariae of newborn mice. The assay can be described thus: In vivo osteoblast proliferation assay (BrdU labeling, calvariae). Set-up: species or system mouse. Particulars: newborn wt mice treated daily for 5 days; 40 μg isoproterenol or 4 μg dexamethasone. Here is the method: Specimens were embedded in paraffin and sectioned at 6 μm. Brains were stained with 0.1% cresyl violet using standard procedures. Immunohistochemistry was performed according to standard protocols (see, e.g., Ausubel, 1995, Current Protocols in Molecular Biology, New York). […] BrdU incorporation was detected by immunohistochemistry using Zymed BrdU staining kit (Zymed Laboratories Inc.). Four pups per treatment were analyzed and 10 calvariae sections were counted per animal. NovaRED was used as a chromogenic peroxidase substrate. Sections were counterstained with hematoxylin.

Another assay deals with wt mice. The assay can be described thus: Long-term isoproterenol treatment of wt mice. The class given is in vivo, mouse. On the procedure:
Wildtype (C57BL/6J) and mutant (C57BL/6J A^y/a, C57BL/6J ob/ob) mice were obtained from the Jackson laboratory and adrenal medullectomized mice from Harlan Tecklad laboratory. Dbh−/− mice were rescued as previously described (Thomas et al., 1998, Neurochem 70:2468-2476). Isoproterenol (Sigma) was injected intraperitoneally (ip) once daily for 6 weeks at 30 mg/kg (wt) or 3 mg/kg (ob/ob). Propranolol (Sigma) was added to the drinking water at a concentration of 0.5 g/l. For ICV infusion, a 28-gauge cannula (Brain infusion kit II, Alza) was implanted into the third ventricle as previously described infusing human leptin (Sigma) at 8 ng/hr or MT-II at 125 ng/hr (Phoenix Pharmaceuticals) for 28 days (see, e.g., Ducy et al., 2000, Cell 100: 197-207). The cannula was connected to an osmotic pump (Alza) placed in the dorsal subcutaneous space of the animal. For parabiosis longitudinal incisions were made in the skin and in the peritoneal cavity along one side on each mouse. Edges of the incisions were connected by suture to induce coelioanastomosis. Cross-circulation was quantified by injecting 1 ml/kg 0.25% Evans blue into the tail vein of one mouse of the parabiosed pair. After 30 min. blood was collected from both mice by retroorbital bleeding and the blood exchange rate was calculated according to standard techniques (see, e.g., Harris & Martin, 1984, Am J Physiol 247:R380-386). […] Two weeks after parabiosis a pump delivering leptin ICV in one animal of each pair was implanted. For GTG lesioning, 4-week-old C57BL/6J mice were given a single ip injection of either PBS or GTG (0.5 mg/g). For MSG lesioning, 2 day-old C57BL/6J pups were injected daily subcutaneously with either PBS or MSG (2 mg/g) for 10 days.
Histological analyses were performed on undecalcified sections stained by von Kossa and counterstained by von Gieson (see, e.g., Ducy et al., 2000, Cell 100:197-207). Static and dynamic histomorphometric analyses were performed according to standard protocols (see, e.g., Parfitt et al., 1987, J Bone Miner Res 6:595-610) using the Osteomeasure Analysis System (Osteometrics, Atlanta). Six to 12 animals were analyzed for each group. Statistical significance was assessed by Student's t test.
To address this point one month-old ob/ob mice were treated for 6 weeks with the β-adrenergic agonist isoproterenol or vehicle. […] To determine the role of the SNS in animals that have none of the metabolic and neurological abnormalities caused by leptin deficiency, this experiment was repeated in wt mice.

The subject of assay [2] is primary osteoblasts isolated from wild-type mice. The assay can be described thus: Leptin signaling in primary osteoblast cultures (Stat3 phosphorylation, immediate early genes, matrix synthesis and mineralization). The class given is cell-based, mouse. On the procedure: Expression of leptin in osteoblasts was studied in subconfluent primary osteoblast cultures from wild-type mice which were maintained for 4 days in 10% FBS mineralization medium and then subsequently switched to 0.5% for 2 days and replaced daily. Medium was replaced 2 hours before a 20 min treatment with 80 ng/mL leptin (Sigma) or 40 ng/mL Oncostatin M (R&D Diagnostics) or vehicle. RNA extractions were performed using Triazol (Gibco). Northern blots were performed with 15 μg of total RNA according to methods well known in the art.
To determine whether or not leptin could transduce its signal in osteoblasts, serum-starved primary osteoblasts isolated from wild-type mice were treated with leptin. Primary osteoblast cultures from calvaria of newborn wild-type or db/db mice were established as previously described (Ducy et al., 1999, Genes Dev 13, 1025-1036) and maintained in mineralization medium (αMEMI 0.1 mg/mL ascorbic acid; 5 mM […]) supplemented with 10% […]. Cultures of mutant cells were maintained in this medium for 15 days before analysis. Cultures derived from wild-type mice were maintained for 10 days in this medium then the percentage of serum was reduced to 0.5% and the medium supplemented with 1.2 μg/mL leptin (Sigma) or vehicle for 5 days.
The phosphorylation of Stat3, a downstream effector of leptin signaling in its target cells (Tartaglia et al., 1995, Cell 83, 1263-1271; Baumann et al., 1996, Proc Natl Acad Sci USA 93, 8374-8378; Ghilardi et al., 1996, Proc Natl Acad Sci USA 93, 6231-6235; Vaisse et al., 1996, Nat Genet 14, 95-97), was monitored, in addition to the expression of two immediate early genes whose transcription is increased following leptin treatment of target cells (Elmquist et al., 1997, Endocrinology 138, 839-842). As a positive control oncostatin-M that induces Stat3 phosphorylation and activates the expression of the same two immediate early genes in osteoblasts (Levy et al., 1996, Endocrinology 137, 1159-1165) was utilized. Western blot analysis was performed to determine Stat3 phosphorylation as follows. Cells were lysed, protein extracts were separated on a 7.5% SDS-PAGE and blotted on nitrocellulose (Biorad) for immunoblotting assay by methods well known in the art. Analysis of Stat3 phosphorylation was performed using the PhosphoPlus Stat3 (Tyr7O5) Antibody kit (New England Biolabs) according to the manufacturer's instructions.
Finally, the effect of a long-term leptin treatment of primary osteoblast cultures from wild-type mice on extracellular matrix synthesis and bone matrix mineralization was determined. The presence of a collagen-rich extracellular matrix and of mineralization nodules was assessed by whole-mount staining of the cultures by the van Gieson and von Kossa reagent, respectively. No difference was observed when assessing collagen synthesis or mineralization nodule formation between control and leptin-treated cultures (FIG. 5E).

Assay [3] deals with propranolol-treated wt mice. The assay can be described thus: Leptin ICV infusion in propranolol-treated mice. Particulars: centrally delivered leptin. The class given is in vivo, mouse. Here is the method:
Wildtype (C57BL/6J) and mutant (C57BL/6J A^y/a, C57BL/6J ob/ob) mice were obtained from the Jackson laboratory and adrenal medullectomized mice from Harlan Tecklad laboratory. Dbh−/− mice were rescued as previously described (Thomas et al., 1998, Neurochem 70:2468-2476). Isoproterenol (Sigma) was injected intraperitoneally (ip) once daily for 6 weeks at 30 mg/kg (wt) or 3 mg/kg (ob/ob). Propranolol (Sigma) was added to the drinking water at a concentration of 0.5 g/l. For ICV infusion, a 28-gauge cannula (Brain infusion kit II, Alza) was implanted into the third ventricle as previously described infusing human leptin (Sigma) at 8 ng/hr or MT-II at 125 ng/hr (Phoenix Pharmaceuticals) for 28 days (see, e.g., Ducy et al., 2000, Cell 100: 197-207). The cannula was connected to an osmotic pump (Alza) placed in the dorsal subcutaneous space of the animal. For parabiosis longitudinal incisions were made in the skin and in the peritoneal cavity along one side on each mouse. Edges of the incisions were connected by suture to induce coelioanastomosis. Cross-circulation was quantified by injecting 1 ml/kg 0.25% Evans blue into the tail vein of one mouse of the parabiosed pair. After 30 min. blood was collected from both mice by retroorbital bleeding and the blood exchange rate was calculated according to standard techniques (see, e.g., Harris & Martin, 1984, Am J Physiol 247:R380-386). […]

Take `CC(C)NCC(O)c1ccc(O)c(O)c1` (centres unmarked) [isoproterenol]: in assay [1], the “number of BrdU positive cells in calvariae compared to control mice (osteoblast proliferation)” value is listed as “nearly two-fold reduction”. Further, the “expression of uncoupling protein 1 (Ucp1) in brown adipose tissue” value in the assay on wt mice was “increased”. Besides, the bone mass result with wt mice (30 mg/kg ip once daily, 6 weeks) was “significantly decreased”. Also, in the assay on wt mice (30 mg/kg, 6 weeks), the body weight result was “without affecting”, the bone formation rate result is on record as “significantly decreased” and the osteoblast number result is “significantly decreased”.

B1: leptin: polypeptide hormone, product of the ob gene; human leptin (Sigma) infused ICV (protein)
chain: VPIQKVQDDTKTLIKTIVTRINDISHTQSVSAKQRVTGLDFIPGLHPILSLSKMDQTLAVYQQVLTSLPSQNVLQIANDLENLRDLLHLLAFSKSCSLPQTSGLQKPESLDGVLEASLYSTEVVALSRLQGSLQDILQQLDVSPEC
As to B1, the “collagen synthesis or mineralization nodule formation vs control cultures” value in assay [2] (long-term treatment, 1.2 μg/mL leptin for 5 days, 0.5% serum) is on record as “No difference”. Further, in assay [2] (primary osteoblasts, 20 min treatment), the “expression of Tis11 and c-fos (Northern analysis)” value is on record as “not”. For the same molecule, in assay [2] (serum-starved primary osteoblasts, 20 min, leptin 80 ng/mL, Oncostatin M 40 ng/mL), the “Stat3 phosphorylation (Western blot)” value was “did not”. Also, in assay [3], the bone mass entry is reported as “did not affect” and the fat pads result is “disappearance”.
